Source: ChEMBL document CHEMBL5346903, “Discovery of novel and bioavailable histone deacetylases and cyclin-dependent kinases dual inhibitor to impair the stemness of leukemia cells” (Eur J Med Chem, 2023)

Assays:
[1] = target: Cyclin-dependent kinase 9 (Homo sapiens, UniProt P50750); experiment: Inhibition of CDK9 (unknown origin) preincubated for 20 mins followed by [gamma-33P]ATP addition measured after 120 mins in presence of ATP by Hot-SpotSM kinase assay
U-937 = experiment: Antiproliferative activity against human U-937 cells incubated for 72 hrs by CCK8 assay; assay type: functional, cell-based; conditions: U-937, 72 h
HL-60 = experiment: Antiproliferative activity against human HL-60 cells incubated for 72 hrs by CCK8 assay; assay type: functional, cell-based; conditions: HL-60, 72 h
[2] = Antiproliferative activity against human SKNO-1 cells incubated for 72 hrs by CCK8 assay; assay type: functional, cell-based; conditions: SKNO-1, 72 h
Kasumi 1 = experiment: Antiproliferative activity against human Kasumi 1 cells incubated for 72 hrs by CCK8 assay; assay type: functional, cell-based; conditions: Kasumi 1, 72 h
Histone deacetylase = experiment: Inhibition of HDAC in human nuclear extract using Ac-Arg-Gly-Lys(Ac)-AMC as substrate incubated overnight by fluorescence based assay; assay type: subcellular, Nucleus; conditions: hela

Chain of Cyclin-dependent kinase 9 (P50750 whole entry): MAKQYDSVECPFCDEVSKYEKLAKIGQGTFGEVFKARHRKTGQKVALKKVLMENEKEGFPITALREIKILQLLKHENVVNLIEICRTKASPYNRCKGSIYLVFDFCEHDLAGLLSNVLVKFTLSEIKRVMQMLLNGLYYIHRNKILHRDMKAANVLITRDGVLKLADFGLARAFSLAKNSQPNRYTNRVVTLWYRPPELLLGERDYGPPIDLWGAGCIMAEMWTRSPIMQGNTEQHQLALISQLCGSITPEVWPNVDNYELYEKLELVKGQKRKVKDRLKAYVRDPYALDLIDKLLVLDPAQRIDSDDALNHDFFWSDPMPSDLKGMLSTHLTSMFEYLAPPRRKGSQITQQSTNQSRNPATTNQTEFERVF

| SMILES | IC50 [1] | IC50 (U-937) | IC50 (HL-60) | IC50 [2] | IC50 (Kasumi 1) | IC50 (Histone deacetylase) |
| --- | --- | --- | --- | --- | --- | --- |
| O=C(CCCCCCN1CCC(NC(=O)c2n[nH]cc2NC(=O)c2c(F)cccc2F)CC1)NO | < 0.1 µM | 1.44 µM | 1.01 µM | 1.08 µM | 1.96 µM | – |
| O=C(CCN1CCC(NC(=O)c2n[nH]cc2NC(=O)c2c(Cl)cccc2Cl)CC1)NO | < 0.1 µM | 0.91 µM | 1.54 µM | 1.67 µM | 1.38 µM | – |
| O=C(CCCNC(=O)c1ccc(NC(=O)c2n[nH]cc2NC(=O)c2c(F)cccc2F)cc1)NO | < 0.1 µM | > 10 µM | > 10 µM | > 10 µM | 5.6 µM | – |
| Nc1cc(Br)c(Br)cc1NC(=O)c1ccc(NC(=O)c2n[nH]cc2NC(=O)c2c(F)cccc2F)cc1 | < 0.1 µM | > 10 µM | > 10 µM | > 10 µM | > 10 µM | – |
| O=C(CCCNC(=O)c1ccc(NC(=O)c2n[nH]cc2NC(=O)c2c(Cl)cccc2Cl)cc1)NO | < 0.1 µM | > 10 µM | > 10 µM | > 10 µM | > 10 µM | – |
| Nc1cc(Cl)c(Cl)cc1NC(=O)c1ccc(NC(=O)c2n[nH]cc2NC(=O)c2c(F)cccc2F)cc1 | < 0.1 µM | 6.8 µM | > 10 µM | 7.28 µM | 7.79 µM | – |
| O=C(CCCCCNC(=O)c1ccc(NC(=O)c2n[nH]cc2NC(=O)c2c(Cl)cccc2Cl)cc1)NO | < 0.1 µM | > 10 µM | > 10 µM | > 10 µM | > 10 µM | – |
| O=C(CCCCNC(=O)c1n[nH]cc1NC(=O)c1c(Cl)cccc1Cl)NO | < 0.1 µM | > 10 µM | > 10 µM | > 10 µM | > 10 µM | – |
| Nc1ccccc1NC(=O)c1ccc(NC(=O)c2n[nH]cc2NC(=O)c2c(F)cccc2F)cc1 | < 0.1 µM | 5.6 µM | > 10 µM | 2.65 µM | 3.1 µM | – |
| O=C(CCN1CCC(NC(=O)c2n[nH]cc2NC(=O)c2c(F)cccc2F)CC1)NO | < 0.1 µM | > 10 µM | 4.45 µM | 9.28 µM | 4.8 µM | – |
| O=C(CCCNC(=O)c1n[nH]cc1NC(=O)c1c(Cl)cccc1Cl)NO | < 0.1 µM | > 10 µM | > 10 µM | > 10 µM | > 10 µM | – |
| O=C(CCNC(=O)c1ccc(NC(=O)c2n[nH]cc2NC(=O)c2c(Cl)cccc2Cl)cc1)NO | < 0.1 µM | > 10 µM | > 10 µM | > 10 µM | > 10 µM | – |
| O=C(CCCCNC(=O)c1ccc(NC(=O)c2n[nH]cc2NC(=O)c2c(F)cccc2F)cc1)NO | < 0.1 µM | > 10 µM | > 10 µM | > 10 µM | > 10 µM | – |
| O=C(CCCCCNC(=O)c1n[nH]cc1NC(=O)c1c(Cl)cccc1Cl)NO | < 0.1 µM | > 10 µM | > 10 µM | > 10 µM | > 10 µM | – |
| Nc1cc(Cl)c(Cl)cc1NC(=O)c1ccc(NC(=O)c2n[nH]cc2NC(=O)c2c(Cl)cccc2Cl)cc1 | < 0.1 µM | 5.92 µM | 9.76 µM | 5.54 µM | 8.42 µM | – |
| O=C(CCCN1CCC(NC(=O)c2n[nH]cc2NC(=O)c2c(F)cccc2F)CC1)NO | < 0.1 µM | > 10 µM | 2.55 µM | 6.31 µM | > 10 µM | – |
| O=C(CCCCNC(=O)c1ccc(NC(=O)c2n[nH]cc2NC(=O)c2c(Cl)cccc2Cl)cc1)NO | < 0.1 µM | 8.52 µM | > 10 µM | > 10 µM | > 10 µM | – |

| SMILES | IC50 [1] | IC50 (U-937) | IC50 (HL-60) | IC50 [2] | IC50 (Kasumi 1) | IC50 (Histone deacetylase) |
| --- | --- | --- | --- | --- | --- | --- |
| O=C(CCCN1CCC(NC(=O)c2n[nH]cc2NC(=O)c2c(Cl)cccc2Cl)CC1)NO | < 0.1 µM | 1.61 µM | 1.24 µM | 2.23 µM | 3.52 µM | – |
| O=C(CCCCN1CCC(NC(=O)c2n[nH]cc2NC(=O)c2c(F)cccc2F)CC1)NO | < 0.1 µM | 7.34 µM | 1.77 µM | 6.53 µM | 6.44 µM | – |
| O=C(CNC(=O)c1n[nH]cc1NC(=O)c1c(Cl)cccc1Cl)NO | < 0.1 µM | > 10 µM | > 10 µM | > 10 µM | > 10 µM | – |
| O=C(CCCCN1CCC(NC(=O)c2n[nH]cc2NC(=O)c2c(Cl)cccc2Cl)CC1)NO | < 0.1 µM | 1.83 µM | 1.1 µM | 2.32 µM | 3.72 µM | – |
| O=C(CN1CCC(NC(=O)c2n[nH]cc2NC(=O)c2c(Cl)cccc2Cl)CC1)NO | < 0.1 µM | 0.94 µM | 1.16 µM | 1.54 µM | 1.54 µM | – |
| Nc1cc(Br)c(Br)cc1NC(=O)c1ccc(NC(=O)c2n[nH]cc2NC(=O)c2c(Cl)cccc2Cl)cc1 | < 0.1 µM | 9.13 µM | 6.86 µM | 4.56 µM | 6.92 µM | – |
| O=C(CCCCCCN1CCC(NC(=O)c2n[nH]cc2NC(=O)c2c(Cl)cccc2Cl)CC1)NO | < 0.1 µM | 0.47 µM | 1.09 µM | 3.09 µM | 6.41 µM | < 1 µM |
| Cc1cc(N)c(NC(=O)c2ccc(NC(=O)c3n[nH]cc3NC(=O)c3c(Cl)cccc3Cl)cc2)cc1C | < 0.1 µM | 1.14 µM | 1.02 µM | 2.56 µM | 0.93 µM | – |
| O=C(Nc1ccccc1)c1ccc(NC(=O)c2n[nH]cc2NC(=O)c2c(Cl)cccc2Cl)cc1 | < 0.1 µM | 4.68 µM | 5.84 µM | 3.27 µM | 3.83 µM | – |
| Cc1cc(N)c(NC(=O)c2ccc(NC(=O)c3n[nH]cc3NC(=O)c3c(F)cccc3F)cc2)cc1C | < 0.1 µM | > 10 µM | > 10 µM | 6.89 µM | > 10 µM | – |
| O=C(CCCCCN1CCC(NC(=O)c2n[nH]cc2NC(=O)c2c(F)cccc2F)CC1)NO | < 0.1 µM | > 10 µM | 1.81 µM | > 10 µM | > 10 µM | – |
| O=C(CCNC(=O)c1ccc(NC(=O)c2n[nH]cc2NC(=O)c2c(F)cccc2F)cc1)NO | < 0.1 µM | > 10 µM | > 10 µM | 5.97 µM | 8.81 µM | – |
| O=C(CCCCCNC(=O)c1ccc(NC(=O)c2n[nH]cc2NC(=O)c2c(F)cccc2F)cc1)NO | < 0.1 µM | > 10 µM | > 10 µM | > 10 µM | > 10 µM | – |
| O=C(CCNC(=O)c1n[nH]cc1NC(=O)c1c(Cl)cccc1Cl)NO | < 0.1 µM | > 10 µM | 10 µM | > 10 µM | 3.87 µM | – |
| O=C(CNC(=O)c1ccc(NC(=O)c2n[nH]cc2NC(=O)c2c(F)cccc2F)cc1)NO | < 0.1 µM | > 10 µM | > 10 µM | > 10 µM | > 10 µM | – |
| O=C(CCCCCN1CCC(NC(=O)c2n[nH]cc2NC(=O)c2c(Cl)cccc2Cl)CC1)NO | < 0.1 µM | 1.84 µM | 1.75 µM | 3.02 µM | 6.19 µM | – |
